# US20250099496A1, “Dihydronicotinamide Riboside (NRH) Therapy for Osteoarthritis and other Conditions” (The Regents of the University of California, priority 2022, published 2025)
# Key:
# gout patients = conditions: each arm: 40, 80 and 120 mg per day; 60 gout patients with baseline SU ≥8 mg/dL; cited from earlier work
# PNP = PNP (Homo sapiens, UniProt P00491); conditions: cited from earlier work
# human OA chondrocytes [1] = test: IL-1β-induced nitric oxide (NO) generation in human OA chondrocytes; type: cell-based; conditions: for concentration at which significant inhibition of IL-1β-induced NO release was observed when used alone: chondrocytes, previously demonstrated
# Description: The effectiveness of NR on inhibition of IL-1β-induced nitric oxide (NO) generation in human chondrocytes was influenced by the presence or absence of serum (which contains PNP) in the cell culture media. Human OA chondrocytes (donor OA278) were treated with a PNP inhibitor Ulodesine (5 uM) for 2 h and then NR (10 or 100 uM) for 1 h, followed by IL1β (2 ng/ml) for 24 h under serum (10% FCS)-present (FIG. 6A) or serum-free condition (FIG. 6B). The conditioned media was used for measuring generation of nitric oxide (NO), a known contributor of cartilage degradation.
# Effectiveness of combination of low-dose of NAD precursors (NR or NRH) with a PNP inhibitor Ulodesine on inhibition of IL-1β-induced nitric oxide (NO) generation in human chondrocytes under the serum-presence condition. Human OA chondrocytes from donor OA277 (FIG. 7A) or OA279 (FIG. 7B) were treated with Ulodesine (5 uM) for 2 h and then NR or NRH at 10 uM for 1 h, followed by IL1p (2 ng/ml) for 24 h under serum-present (10% FCS) condition. The conditioned media was used for measuring NO generation.
# [2] = system: MSU crystal-induced inflammation; test: MSU crystal-induced inflammation in the gout-like air pouch model in mice; type: in vivo; conditions: via gavage, 400 mg/kg/day
# Description: It was observed that blood NAD levels decrease, correlated with increase in CD38 expression in peripheral blood mononuclear cells in gout patients compared to healthy subjects. […] The effect of oral supplementation of NR or NRH (via gavage, 400 mg/kg/day) on MSU crystal-induced inflammation in the gout-like air pouch model in mice was tested (FIG. 8). The development of the air pouch leads to a pouch lining tissue that is morphologically like the synovium in joints, in which injection of sterile-filtered air under the skin on the back of the test animal provides an environment that is used to simulate the effects of diseases such as gout. […] Given the potential of Ulodesine in lowering uric acid and of NR or NRH in limiting MSU crystal-induced inflammation, combination of NR or NRH with Ulodesine, or other PNP inhibitors, presents a novel therapeutic approach for gout.
# [3] = metabolized by PNP; cited from earlier work
# [4] = cited from earlier work
# human OA chondrocytes [5] = test: Cellular NAD, NADH and NAD/NADH ratio in human OA chondrocytes; type: cell-based
# From the text: (§1) In this study, it was observed that CD38 expression is increased in human knee cartilage of both osteoarthritis (OA) and aged donors (FIGS. 1A and 1B), in primary human knee OA chondrocytes (FIG. 1C) and in chondrocytes stimulated with IL-1, a pro-inflammatory cytokine implicated to play an important role in OA pathogenesis (FIG. 1E). […] In addition, NRH prevented IL-1β-induced CD38 expression at both mRNA and protein levels (FIGS. 2D and 2E) and decline of NAD levels and NAD/NADH ratio (FIGS. 2F and 2G). […] It was observed that NRH has higher potency than NR to inhibit IL-1β-induced catabolic responses in chondrocytes, evidenced by that similar efficacy was achieved by NRH used at concentration 10 times less than NR (data not shown).
# CD38 = test: IL-1β-induced CD38 expression in chondrocytes; type: cell-based, human; conditions: mRNA and protein levels
# From the text: as §1
# MMP3 = test: IL-1β-induced MMP3 expression at cellular and tissue levels; type: cell-based, human; conditions: cellular (mRNA and protein) levels and tissue levels
# From the text: as §1
# MMP13 = test: IL-1β-induced MMP13 expression at cellular and tissue levels; type: cell-based, human; conditions: cellular (mRNA and protein) levels and tissue levels
# From the text: as §1
# [6] = system: cartilage matrix degradation; test: IL-1β-induced release of matrix protein glycosaminoglycan (GAG); type: cell-based
# From the text: as §1
# chondrocytes = test: IL-1β-induced catabolic responses in chondrocytes, NRH versus NR; type: cell-based; conditions: inhibition of IL-1β-induced catabolic responses; data not shown
# From the text: as §1
# post-traumatic OA model = test: Post-traumatic OA model (DMM surgery) in mice, oral NRH; type: in vivo
# Description: Given that NRH is a natural NAD precursor with oral bioavailability and its ability to not only promote NAD^+ biosynthesis, but also prohibit NAD^+ degradation by inhibiting CD38, it was next tested whether oral administration of NRH limits OA development in mice using a post-traumatic OA model. Destabilization of medial meniscus (DMM) surgery was performed on the right knee of mice to cause joint injury and started NRH treatment through gavage 2 week after the surgery. Pain behaviors such as pain sensitivity and spontaneous pain were evaluated by Von Frey and static weight bearing tests, respectively, at baseline and every 2 weeks after the surgery. At 10 weeks after the surgery, mice were sacrificed, and knee OA pathological changes including cartilage degradation, synovial inflammation and osteophyte formation were assessed.
# [7] = cited from earlier work; remark: listed apart in the source
# [8] = 10 uM alone, serum-present (10% FCS), donors OA277, OA279
# [9] = human OA chondrocytes stimulated with NRH
# [10] = NRH by gavage from 2 weeks after DMM surgery, assessed at 10 weeks
# [11] = at 6, 8 and 10 weeks after the surgery
# Chain of PNP (P00491 whole entry): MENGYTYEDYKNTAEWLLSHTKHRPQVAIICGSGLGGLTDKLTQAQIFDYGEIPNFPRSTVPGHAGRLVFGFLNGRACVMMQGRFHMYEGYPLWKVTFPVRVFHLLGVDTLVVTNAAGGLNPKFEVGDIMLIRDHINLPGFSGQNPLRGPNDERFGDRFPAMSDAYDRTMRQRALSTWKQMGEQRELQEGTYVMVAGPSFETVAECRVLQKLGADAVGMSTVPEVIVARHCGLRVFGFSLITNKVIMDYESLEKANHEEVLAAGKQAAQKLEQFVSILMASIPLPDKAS
structure (smiles),measurement,setting,value
O=c1[nH]cnc2c(CN3C[C@H](CO)[C@@H](O)C3)c[nH]c12 [Ulodesine],participants achieving the target SU of less than 6 mg/dL,gout patients,approximately one third
same,IC50 for PNP,PNP,in the nM concentration range
"NC(=O)c1ccc[n+]([C@@H]2O[C@H](CO)[C@@H](O)[C@H]2O)c1 [NR, nicotinamide riboside]",effect on IL-1β-induced NO release,human OA chondrocytes [1]; [8],little effect
same,effect on IL-1β-induced NO release,"human OA chondrocytes [1]; NR 10 and 100 uM, serum-free, donor OA278",robust inhibition
same,effect on IL-1β-induced NO release,"human OA chondrocytes [1]; NR 10 and 100 uM, serum-present (10% FCS), donor OA278",little effect
same,concentration at which significant inhibition of IL-1β-induced NO release was observed when used alone,human OA chondrocytes [1],200 µM
same,MSU crystal-induced infiltrating inflammatory cells,[2],significantly inhibited
same,stability in plasma (degradation to NAM),[3],rapidly degraded
same,tolerability and safety,"[4]; chronic oral supplementation, human","well-tolerated, safe"
same,human NAD+ metabolism,[4]; chronic oral supplementation,boosted
same,blood pressure and exercise performance,"[4]; dietary supplementation, elderly individuals",only mild benefits
same,glucose tolerance and β-cell secretory capacity,[4]; nondiabetic men with obesity,no significant impact
same,skeletal muscle mitochondria,[4]; obese and insulin-resistant men,no significant impact
"NC(=O)C1=CN([C@@H]2O[C@H](CO)[C@@H](O)[C@H]2O)C=CC1 [NRH, dihydronicotinamide riboside]",IL-1β-induced decline of NAD levels,human OA chondrocytes [5]; IL-1β stimulation,prevented
same,IL-1β-induced decline of NAD/NADH ratio,human OA chondrocytes [5]; IL-1β stimulation,prevented
same,NAD/NADH ratio,human OA chondrocytes [5]; [9],dramatically increased
same,cellular levels of NAD,human OA chondrocytes [5]; [9],dramatically increased
same,cellular levels of NADH,human OA chondrocytes [5]; [9],dramatically increased
same,IL-1β-induced CD38 expression,CD38,prevented
same,IL-1β-induced expression of MMP3,MMP3,completely attenuated
same,IL-1β-induced expression of MMP13,MMP13,completely attenuated
same,IL-1β-induced release of glycosaminoglycan (GAG),[6],significantly inhibited
same,concentration of NRH relative to NR giving similar efficacy,chondrocytes,10 times less
same,cartilage damage,post-traumatic OA model; [10],significantly reduced
same,osteophyte size and maturity,post-traumatic OA model; [10],significantly reduced
same,synovial inflammation,post-traumatic OA model; [10],significantly reduced
same,paw withdraw threshold (Von Frey),post-traumatic OA model; [11],significantly increased
same,weight bearing capacity,post-traumatic OA model; [11],significantly increased
same,effect on IL-1β-induced NO release,human OA chondrocytes [1]; [8],little effect
same,concentration at which significant inhibition of IL-1β-induced NO release was observed when used alone,human OA chondrocytes [1],200 µM
same,MSU crystal-induced infiltrating inflammatory cells,[2],significantly inhibited
same,NRH in circulation after NRH treatment,[7]; mice,detectable
same,NR in circulation after NRH treatment versus after NR administration,"[7]; mouse, in vivo",much higher levels
same,stability compared to NR,"[7]; mouse, in vivo",more stable
